Values quoted from earlier work in US10993951B2, “Fosfomycin formulation for parenteral administration” (priority 2016, dated 2021).
Counter-ions that a name gives are not always drawn.

Conditions: cited from earlier work

C[C@@H]1O[C@@H]1P(=O)(O)O [Fosfomycin disodium salt, fosfomycin disodium salt]
solubility in water: highly soluble
